≈ marks a conversion by molar mass, not a printed value. Where two headings read alike, the source gives them in different places.
Assays:
[1] = test system: S. pseudointermedius n°15 410; test: Time-killing curve, broth macrodilution; type: cell-based, Staphylococcus pseudintermedius
Procedure: The time-killing curve is used to determine the bactericidal or bacteriostatic activity of the antibimicrobial substances. Time-killing curves of Oxyclozanide against canine isolates of Staphylococcus aureus and Staphylococcus pseudintermedius were obtained using broth macrodilution method. After contact of different fixed amounts of Oxyclozanide with an inoculum, viable bacteria are counted immediately after contact and after 1, 3, 6 and 24 hours. Counting is performed on agar medium without antimicrobial substance.
Results are analyzed by plotting log10 CFU/ml versus time for each tested concentration. Bactericidal activity as defined by 99.9% killing of the inoculum is determined from time-killing curves by noting the presence of a ≥3 log10 decrease in CFU/ml.
Bacterial strains were sub-cultured twice from one cryobead on Mueller Hinton agar and incubated at 37° C. for 18-24 hours. From the second subcultures, isolated colonies were transferred into tubes containing 2 ml of Mueller Hinton Broth in order to obtain bacterial suspensions at 10^8 CFU/ml, knowing that an optical density of 0.1 at 620 nm corresponds to bacterial suspension at 10^8 CFU/ml. Then, bacterial suspensions were adjusted between 5 10^7 and 1 10^8 CFU/ml by dilution in Mueller Hinton broth.
For each concentration of Oxyclozanide to be tested, 50 μl of working solution concentrated 100× and […] of inoculum were added to 5 ml of Mueller-Hinton broth. Thus, the range of tested concentrations was from 0.125 to 8 μg/ml and the concentration of micro-organism was between 1 10^6 and 2 10^6 CFU/ml.
At the same time, a tube without Oxyclozanide was prepared: 50 μl of DMSO and 100 μl of inoculum were added to 5 ml of Mueller-Hinton broth and used as growth control. Tubes were incubated at 36° C. under agitation.
The numbers of viable bacteria were determined immediately after contact (TO) and after 1, 3, 6 and 24 h of incubation.
At each time, samples of each tube were taken and dilutions were performed in Mueller-Hinton broth. Then, dilutions were spread on Mueller Hinton agar with spiral plater. After 18 h of incubation at 36° C., counting of colonies was performed with automatic colony counter which determine the concentrations of viable bacteria. The technique employed made it possible to quantify bacterial concentrations as low as 20 CFU/ml.
Time-killing curves were plotted for each concentration of Oxyclozanide using Microsoft Excel software. The number or surviving bacteria was expressed as log10 CFU/ml. The time-killing curves of each strain represent the decrease in the viable bacteria count as a function of time for the Oxyclozanide concentrations concerned.
Bactericidal activity as defined by 99.9% killing of the inoculum is determined from time-killing curves by noting the presence of a ≥3 log10 decrease in CFU/ml.

Malassezia pachydermatis = test: MIC, microdilution broth method; type: cell-based; details: for MIC: Malassezia pachydermatis, read-out: MIC
Procedure: Six clinical isolates from dog skin (n=5) and cats (n=1) which had been sent to EnvA (mycology laboratory of BioPôle Alfort) for mycological culture. The isolates, collected in March 2016, were identified as belonging to the species Malassezia pachydermatis. They were maintained by regular transplanting on medium of Sabouraud. Isolates are subcultured 2 to 3 days prior to testing sensitivity.
A stock solution of Oxyclozanide at 1600 μg/mL is prepared in DMSO. The stock solution is then diluted in DMSO to obtain a concentration range of 3.125 μg/ml to 800 μg/ml. A 1/50 dilution of this range and of the stock solution is then carried out in ultrapure water so as to obtain a concentration range of 0.0625 μg/ml to 32 μg/ml and containing 2% of DMSO. 50 μl of these solutions are deposited in wells of a microplate and then 50 μl of inoculum calibrated at 10^6 CFU/ml in Sabouraud/Tween 40 (2%) are added. A range of tested concentrations ranges from 0.0312 μg/mL to 16 μg/mL. The final concentration of DMSO in contact with the inoculum is 1%. The same dilution and seeding protocol was followed with a stock solution of amphotericin B at 1600 μg/ml. A “placebo” (or yeast growth control) column is systematically included in the plates. The plates are incubated at 37 ° C. The reading is done at 24 and 48 h. Several trials were conducted and protocol adjustments were required. In particular, the concentration of the inoculum had to be reduced for antifungal activity to be observed.

O=C(Nc1cc(Cl)cc(Cl)c1O)c1c(O)c(Cl)cc(Cl)c1Cl [Oxyclozanide]
Bacteria reducing rate ([1]; 0.125 μg/ml (MIC), 1 h): 0.2 Δ log10 CFU/ml
Bacteria reducing rate ([1]; 0.125 μg/ml (MIC), 3 h): 1.1 Δ log10 CFU/ml
Bacteria reducing rate ([1]; 0.125 μg/ml (MIC), 6 h): 2.3 Δ log10 CFU/ml
Bacteria reducing rate ([1]; 0.125 μg/ml (MIC), 24 h): 2.9 Δ log10 CFU/ml
Bacteria reducing rate ([1]; 0.25 μg/ml (2 MIC), 1 h): 0.1 Δ log10 CFU/ml
Bacteria reducing rate ([1]; 0.25 μg/ml (2 MIC), 3 h): 1.1 Δ log10 CFU/ml
Bacteria reducing rate ([1]; 0.25 μg/ml (2 MIC), 6 h): 2.3 Δ log10 CFU/ml
Bacteria reducing rate ([1]; 0.25 μg/ml (2 MIC), 24 h): 1.1 Δ log10 CFU/ml
Bacteria reducing rate ([1]; 0.5 μg/ml (4 MIC), 1 h): 0.1 Δ log10 CFU/ml
Bacteria reducing rate ([1]; 0.5 μg/ml (4 MIC), 3 h): 1.1 Δ log10 CFU/ml
Bacteria reducing rate ([1]; 0.5 μg/ml (4 MIC), 6 h): 2.1 Δ log10 CFU/ml
Bacteria reducing rate ([1]; 0.5 μg/ml (4 MIC), 24 h): 1.1 Δ log10 CFU/ml
Bacteria reducing rate ([1]; 1 μg/ml (8 MIC), 1 h): 0.1 Δ log10 CFU/ml
Bacteria reducing rate ([1]; 1 μg/ml (8 MIC), 3 h): 0.1 Δ log10 CFU/ml
Bacteria reducing rate ([1]; 1 μg/ml (8 MIC), 6 h): 0.1 Δ log10 CFU/ml
Bacteria reducing rate ([1]; 1 μg/ml (8 MIC), 24 h): 0.4 Δ log10 CFU/ml
Viable bacteria count ([1]; 1 μg/ml (8 MIC), 24 h): 6.7 Log10 CFU/ml
Bacteria reducing rate ([1]; 2 μg/ml (16 MIC), 1 h): 0.0 Δ log10 CFU/ml
Bacteria reducing rate ([1]; 2 μg/ml (16 MIC), 3 h): −0.1 Δ log10 CFU/ml
Bacteria reducing rate ([1]; 2 μg/ml (16 MIC), 6 h): −0.9 Δ log10 CFU/ml
Bacteria reducing rate ([1]; 2 μg/ml (16 MIC), 24 h): −1.7 Δ log10 CFU/ml
Viable bacteria count ([1]; 2 μg/ml (16 MIC), 24 h): 4.6 Log10 CFU/ml
Bacteria reducing rate ([1]; 4 μg/ml (32 MIC), 1 h): −0.2 Δ log10 CFU/ml
Bacteria reducing rate ([1]; 4 μg/ml (32 MIC), 3 h): −0.1 Δ log10 CFU/ml
Bacteria reducing rate ([1]; 4 μg/ml (32 MIC), 6 h): −1.2 Δ log10 CFU/ml
Bacteria reducing rate ([1]; 4 μg/ml (32 MIC), 24 h): −3.9 Δ log10 CFU/ml
Viable bacteria count ([1]; 4 μg/ml (32 MIC), 24 h): 2.4 Log10 CFU/ml
Bacteria reducing rate ([1]; 8 μg/ml (64 MIC), 1 h): −0.2 Δ log10 CFU/ml
Bacteria reducing rate ([1]; 8 μg/ml (64 MIC), 3 h): −1.6 Δ log10 CFU/ml
Viable bacteria count ([1]; 8 μg/ml (64 MIC), 3 h): 4.7 Log10 CFU/ml
Bacteria reducing rate ([1]; 8 μg/ml (64 MIC), 6 h): −3.7 Δ log10 CFU/ml
Viable bacteria count ([1]; 8 μg/ml (64 MIC), 6 h): 2.6 Log10 CFU/ml
Bacteria reducing rate ([1]; 8 μg/ml (64 MIC), 24 h): −5.0 Δ log10 CFU/ml
MIC (Malassezia pachydermatis; Isolate 1, Assay 1, 10^6 CFU/ml): 8 µg/mL (≈ 19.9 µM)
MIC (Malassezia pachydermatis; Isolate 1, Assay 2, 10^6 CFU/ml): 4 µg/mL (≈ 9.96 µM)
MIC (Malassezia pachydermatis; Isolate 2, Assay 1, 10^6 CFU/ml): 8 µg/mL (≈ 19.9 µM)
MIC (Malassezia pachydermatis; Isolate 2, Assay 2, 10^6 CFU/ml): 8 µg/mL (≈ 19.9 µM)
MIC (Malassezia pachydermatis; Isolate 3, Assay 1, 10^6 CFU/ml): 8 µg/mL (≈ 19.9 µM)
MIC (Malassezia pachydermatis; Isolate 3, Assay 2, 10^6 CFU/ml): 16 µg/mL (≈ 39.9 µM)
MIC (Malassezia pachydermatis; Isolate 4, Assay 1, 10^6 CFU/ml): > 16 µg/mL
MIC (Malassezia pachydermatis; Isolate 4, Assay 2, 10^6 CFU/ml): > 16 µg/mL
MIC (Malassezia pachydermatis; Isolate 5, Assay 1, 10^6 CFU/ml): 8 µg/mL (≈ 19.9 µM)
MIC (Malassezia pachydermatis; Isolate 5, Assay 2, 10^6 CFU/ml): 8 µg/mL (≈ 19.9 µM)
MIC (Malassezia pachydermatis; Isolate 6, Assay 1, 10^6 CFU/ml): 8 µg/mL (≈ 19.9 µM)
MIC (Malassezia pachydermatis; Isolate 6, Assay 2, 10^6 CFU/ml): 16 µg/mL (≈ 39.9 µM)
Activity with respect to Malassezia pachydermatis (Malassezia pachydermatis; isolate 3): no activity
Activity with respect to Malassezia pachydermatis (Malassezia pachydermatis; six clinical isolates): active
